Data reported in ChEMBL document CHEMBL3867459, “A cell-based approach to characterize antimicrobial compounds through kinetic dose response” (Bioorg Med Chem, 2016).
≈ marks a conversion by molar mass, not a printed value.

Key:
Escherichia coli [1] = experiment: Antibacterial activity against Escherichia coli K-12 BW25113 measured every 10 mins after 24 hrs in absence of biotin; format: functional
Escherichia coli [2] = experiment: Inhibition of Escherichia coli His-tagged bioA at 1 uM using KAPA as substrate after 20 mins in presence of SAM relative to control
Escherichia coli [3] = experiment: Antibacterial activity against Escherichia coli K-12 BW25113 measured every 10 mins after 24 hrs in presence of biotin; format: functional
[4] = Chemical stability assessed as compound decomposition in double distilled water at 40 ug/ml at pH 7.4 after 24 hrs by HPLC analysis; format: physicochemical; conditions: buffer, pH 7.4, 24 h

SMILES: CSCC(=O)NN
- MIC (Escherichia coli [1]): 64 µg/mL (≈ 533 µM)
- inhibition (Escherichia coli [2]): 50%
- MIC (Escherichia coli [3]): 64 µg/mL

SMILES: NNC(=O)CS
- MIC (Escherichia coli [1]): 256 µg/mL (≈ 2410 µM)
- inhibition (Escherichia coli [2]): 20%
- MIC (Escherichia coli [3]): 256 µg/mL

SMILES: NNC(=O)CSc1ccccc1[N+](=O)[O-]
- MIC (Escherichia coli [1]): 8 µg/mL (≈ 35.2 µM)
- inhibition (Escherichia coli [2]): 100%
- MIC (Escherichia coli [3]): > 256 µg/mL

SMILES: S=C1SCN(Cc2cccnc2)CN1Cc1cccnc1
- Stability [4]: Unstable

SMILES: CC(=O)NN
- MIC (Escherichia coli [1]): 128 µg/mL (≈ 1730 µM)
- inhibition (Escherichia coli [2]): 7%
- MIC (Escherichia coli [3]): 128 µg/mL

SMILES: O=[N+]([O-])/C=C/c1cccc(F)c1
- Stability [4]: Unstable

SMILES: Cc1ccccc1SCC(=O)NN
- MIC (Escherichia coli [1]): 16 µg/mL (≈ 81.5 µM)
- inhibition (Escherichia coli [2]): 81%
- MIC (Escherichia coli [3]): > 256 µg/mL

SMILES: O=C1C=CC(=O)N1Cc1cccs1
- Stability [4]: Unstable

SMILES: NNC(=O)CSc1ccccc1Cl
- MIC (Escherichia coli [1]): 16 µg/mL (≈ 73.8 µM)
- inhibition (Escherichia coli [2]): 63%
- MIC (Escherichia coli [3]): > 256 µg/mL
